The values that follow come from ChEMBL document CHEMBL2057130, “Bruton's tyrosine kinase inhibitors: approaches to potent and selective inhibition, preclinical and clinical evaluation for inflammatory diseases and B cell malignancies” (J Med Chem, 2012).

SMILES strings stand for the structures.

The IC50 is the midpoint of a concentration-inhibition curve. A higher IC50 goes with a need for much substance. Broadly, the EC50 is the concentration at which the effect is half-maximal. For orientation: bioavailability means the share of a dose that reaches the circulation, judged against a reference dose that is usually intravenous. Higher therefore signals much systemic uptake. The CL/F is clearance divided by bioavailability, as obtained after extravascular dosing. In general, inhibition in vivo refers to the percentage by which the read-out fell short of the control. A lower inhibition in vivo goes with a response near the control.

The target in data set [1] is T1, Tyrosine-protein kinase BTK (Homo sapiens, UniProt Q06187).
Description: Inhibition of human BTK by enzymatic assay
Another data set deals with Splenocyte. Put plainly: Inhibition of mouse B-cell splenocyte activation by cell proliferation assay. The class given is functional, cell-based.
Data set [2] relates to Blood. Put plainly: Inhibition of CD63 expression in human whole blood. The class given is functional, tissue-based.
Data set [3] in a line: Oral bioavailability in dosed rat. In kind it is ADME, organism-based. Conditions: in vivo.
Data set [4] in a line: Inhibition of anti-IgM-induced human B cell proliferation. The class given is functional, cell-based.
The test system of data set [5] is Mus musculus. As to the kind of experiment: Antiarthritic effect in mouse CIA model assessed as inhibition of clinical arthritis scores dosed prophylactically through subcutaneous route. The class given is functional.
Data set [6] is described as follows: Clearance in po dosed rat. In kind it is ADME, organism-based. Conditions: in vivo.
For data set [7], the system named is Macrophage. As to the kind of experiment: cells.
Description: (§1) Inhibition of immobilized immune complex-stimulated TNFalpha production in macrophages
In data set [8] the test system is Blood. As to the kind of experiment: Inhibition of IgM-stimulated CD69 expression in human whole blood. The class given is functional, tissue-based.
Data set [9] relates to Mus musculus. As to the kind of experiment: Inhibition of anti-IgD antibody stimulated CD69 expression in mouse CIA model dosed prophylactically at 3 to 100 mg/kg, po measured 24 hrs post dose. The class given is functional. Conditions: dose mg/kg 3-100.
In data set [10] the test system is Macrophage.
Description: as §1
The test system of a further data set is Rattus norvegicus. As to the kind of experiment: Inhibition of hypersensitive immune responses in rat passive cutaneous anaphylaxis model at 30 mg/kg. In kind it is functional.
For data set [11], the target named is T1, Tyrosine-protein kinase BTK. Put plainly: Inhibition of BTK in human Ramos cells by FLIPR assay. In kind it is cell-based.

T1 sequence (Q06187 whole entry): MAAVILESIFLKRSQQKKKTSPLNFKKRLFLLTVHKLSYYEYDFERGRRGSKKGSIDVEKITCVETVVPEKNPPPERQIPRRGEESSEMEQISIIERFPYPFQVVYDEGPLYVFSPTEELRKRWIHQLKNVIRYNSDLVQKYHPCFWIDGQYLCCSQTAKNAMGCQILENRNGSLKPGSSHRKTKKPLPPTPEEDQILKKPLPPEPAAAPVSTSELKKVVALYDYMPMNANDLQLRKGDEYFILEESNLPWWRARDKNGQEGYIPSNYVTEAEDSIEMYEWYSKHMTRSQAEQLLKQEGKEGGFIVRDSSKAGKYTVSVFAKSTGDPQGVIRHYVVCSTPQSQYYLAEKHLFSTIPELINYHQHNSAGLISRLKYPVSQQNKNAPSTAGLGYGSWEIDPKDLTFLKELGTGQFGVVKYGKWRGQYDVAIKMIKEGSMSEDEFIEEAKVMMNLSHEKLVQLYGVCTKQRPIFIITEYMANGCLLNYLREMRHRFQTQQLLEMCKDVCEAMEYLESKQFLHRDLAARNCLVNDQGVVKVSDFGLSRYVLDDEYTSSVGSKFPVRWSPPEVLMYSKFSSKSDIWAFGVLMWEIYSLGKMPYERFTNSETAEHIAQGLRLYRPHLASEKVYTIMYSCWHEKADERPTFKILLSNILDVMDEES
Description for Mast cell: Inhibition of IgE-Fce cross-linking induced histamine release in mast cells

Take `Nc1ncnc2c1c(-c1ccc(Oc3ccccc3)cc1)nn2C1CCCC1`: in data set [1], inhibition was half-maximal at 8.2 nM (IC50).
With `Cc1ccccc1Nc1nc2cc(F)c(N(C)C(=O)/C=C/CN(C)C)cc2n2cncc12`, in the data set on Splenocyte, the IC50 came to 3.41 nM.
`Cc1c(NC(=O)c2ccc(C(C)(C)C)cc2)cccc1-c1cn(C)c(=O)c(Nc2ccc(C(=O)N3CCOCC3)cc2)n1` showed an EC50 with Blood [2] of 1200 nM. The bioavailability in data set [3] was under 1%. The IC50 in data set [4] was 42 nM; with Macrophage [7] it was 25 nM. Also, the “inhibition (INH)” value in the data set on Mus musculus [5] is recorded as over 97%. In data set [6], this compound returned a CL/F of 86 mL/min/kg.
For the compound `CN1CCN(c2ccc(Nc3cc(-c4cccc(-n5ccc6cc(C7CC7)cc(F)c6c5=O)c4CO)cn(C)c3=O)nc2)CC1`, the half-maximal inhibitory concentration (IC50) in the data set on Blood [8] stood at 17 nM; in the data set on Macrophage [10], 4 nM; with Mast cell it was 29.2 nM. Further, the “inhibition (INH)” value in the data set with Mus musculus [9] is listed as 50%. Besides, in the data set on Rattus norvegicus, the inhibition in vivo at 30 mg/kg was 91%.
For `CC(C)(C)c1ccc(C(=O)Nc2cccc(-c3cn4ccnc4c(Nc4ccccc4)n3)c2)cc1`, it took 400 nM to reach half-maximal inhibition in [1] (IC50).
In turn, `CC(C)(C)c1ccc(C(=O)N[C@@H]2CCCN(c3nc(Nc4ccc(C(=O)N5CCNCC5)cc4)c4nccn4n3)C2)cc1` displayed an IC50 in the data set with Splenocyte of 56 nM. This lies in the double-digit nanomolar range.
In turn, `Cc1c(-c2ccc(C(N)=O)c3[nH]c4cc(C(O)CO)ccc4c23)cccc1-n1cnc2ccc(F)cc2c1=O` (stereo not given) gave an IC50 in data set [11] of 11 nM.
`CN1CCC(=C2c3ccccc3C=Cc3ccccc32)CC1` [CYPROHEPTADINE]: in the data set on Rattus norvegicus, 30 mg/kg produced 69% inhibition in vivo.
As to `C=CC(=O)N1CCCC(c2c(Cl)c(-c3ccc(Oc4ccc(Cl)c(Cl)c4)c(OC)c3)c3c(N)ncnn23)C1` (stereo not given), in the data set with Splenocyte, the IC50 was found to be 130 nM. This lies in the sub-micromolar range.
Consider `Cc1c(NC(=O)c2ccc(N(C)C)cc2)cccc1-c1nc(Nc2ccc(C(=O)N3CCOCC3)cc2)c2ncc(N)n2n1`, for which the figures for the IC50 (in data set [1]; in the data set with Splenocyte) were 30 nM and 32 nM, respectively.
`O=C(CNc1ccccc1S(=O)(=O)N1CCCCC1)N[C@@H]1CCCN(c2ncnc3[nH]ccc23)C1` showed an IC50 in data set [1] of under 100 nM.
Take `Cc1c(NC(=O)c2ccc(N(C)C)cc2)cccc1-c1nc(Nc2ccc(C(=O)N3CCOCC3)cc2)c2nccn2n1`: the half-maximal inhibitory concentration (IC50) is 144 nM in [1] and 142 nM with Splenocyte.
Regarding `CN1CCN(c2ccc(Nc3cc(-c4cccc(N5CCOc6cc(C(C)(C)C)ccc6C5=O)c4CO)cn(C)c3=O)nc2)CC1`, in the data set on Blood [8] (Homo sapiens, Blood), the IC50 was determined as 4 nM.
`O=C(N[C@@H]1CCCN(c2ncnc3[nH]ccc23)C1)[C@H](Nc1ccccc1)C1CC1` returned an IC50 in data set [1] of under 100 nM.
